IC50 data for 26 compounds are collected here from patent publication US10449208B2, “Antiviral prodrugs of tenofovir” (Merck Sharp & Dohme Corp., priority 2016, dated 2019).

Like-named read-outs stand apart in the source and are kept apart here.

This test relates to HIV-1 (H9/IIIB strain). Put plainly: Multiple round HIV-1 infection assay (Viking assay) in MT4-GFP cells. Format: cell-based. Conditions: MT4-GFP cells infected with HIV-1 H9/IIIB, inhibition of reproductive ratio R0. The procedure:
Assessing Antiviral Potency in a Multiple Round HIV-1 Infection Assay (Viking Assay)
The antiviral activity of the tenofovir prodrugs of the Examples herein was assessed in an assay that measures the rate of replication of HIV in cell culture, termed the Viking assay (Viral KINetics in Green cells) and performed as follows. HIV-1 replication was monitored using MT4-gag-GFP clone D3 (hereafter designated MT4-GFP), which are MT-4 cells modified to harbor a GFP reporter gene, the expression of which is dependent on the HIV-1 expressed proteins tat and rev. Productive infection of an MT4-GFP cell with HIV-1 results in GFP expression approximately 24 h post-infection. MT4-GFP cells were maintained at 37° C./5% CO2/90% relative humidity in RPMI 1640 supplemented with 10% fetal bovine serum, 100 μ/ml penicillin/streptomycin, and 400 μg/ml G418 to maintain the reporter gene. For infections, MT4-GFP cells were placed in the same medium lacking G418 and infected overnight with HIV-1 (H9/IIIB strain) virus at an approximate multiplicity of infection of 0.01 in the same incubation conditions. Cells were then washed and re-suspended in either RPMI 1640 supplemented with 10% or 50% normal human serum (NFIS) at 1.6×10^5 cells/mL (10% NHS or 50% NHS, respectively). Compound plates were prepared by dispensing compounds dissolved in DMSO into wells of 384 well poly-D -lysine-coated plates (0.2 μl/well) using an ECHO acoustic dispenser. Each compound was tested in a 10-point serial 3-fold dilution (typical final concentrations: 8.4 μM-0.42 nM). Controls included no inhibitor (DMSO only) and a combination of three antiviral agents (efavirenz, indinavir, an in-house integrase strand transfer inhibitor at final concentrations of 4 μM each). Cells were added (50 μL/well) to compound plates and the infected cells were maintained at 37° C./5% CO2/90% relative humidity.
infected cells were quantified at two time points, ˜48 h and ˜72 h post -infection, by counting the number of green cells in each well using an Acumen eX3 scanner. The increase in the number of green cells over ˜24 h period gives the reproductive ratio, R0, which is typically 5-15 and has been shown experimentally to be in logarithmic phase (data not shown). Inhibition of R0 is calculated for each well, and IC50s determined by non-linear 4-parameter curve fitting.

Where [1] appears, read: Human immunodeficiency virus 1, IIIB, 10% normal human serum, read-out: Viking, IC50 (10% NHS).
The mark [2] stands for this setting: Human immunodeficiency virus 1, IIIB, 50% normal human serum, read-out: Viking, IC50 (50% NHS).
The mark [3] stands for this setting: 10% normal human serum, read-out: Viking, IC50 (10% NHS).
[4] abbreviates: 50% normal human serum, read-out: Viking, IC50 (50% NHS).

As to `C[C@H](Cn1cnc2c(N)ncnc21)OCP(=O)(NC(C)(C)C(=O)OC1CCCC1)O[C@@H](C)C(=O)OC1CCCC1` (single isomer, unassigned) [Example 5A], the IC50 (in general, the concentration that gives 50% inhibition) by setting is: under setting [1], 5.71 nM; under setting [2], 45 nM.

`C[C@H](Cn1cnc2c(N)ncnc21)OCP(=O)(NC(C)(C)C(=O)OC1CCCC1)O[C@@H](C)C(=O)OC1CCCC1` (single isomer, unassigned) [Example 5B]: the 50% inhibitory concentration (IC50) runs as follows: under setting [3], 5.73 nM; under setting [4], 23.4 nM.

In the case of `CCCCCCOC(=O)C(C)(C)NP(=O)(CO[C@H](C)Cn1cnc2c(N)ncnc21)O[C@H](C)C(=O)OC(C)C` (single isomer, unassigned) [Example 9A], the IC50 under setting [3] was determined as 4.2 nM and the concentration for half-maximal inhibition (IC50) under setting [4] is 26.1 nM.

Regarding `CCCCCOC(=O)[C@H](C)OP(=O)(CO[C@H](C)Cn1cnc2c(N)ncnc21)NC(C)(C)C(=O)OC(C)C` (single isomer, unassigned) [Example 10A], the IC50 by setting is: under setting [3], 26.3 nM; under setting [4], 142 nM.

With `CCCCCOC(=O)[C@H](C)OP(=O)(CO[C@H](C)Cn1cnc2c(N)ncnc21)NC(C)(C)C(=O)OC(C)C` (single isomer, unassigned) [Example 10B], the concentration for half-maximal inhibition (IC50) runs as follows: under setting [3], 85.6 nM; under setting [4], 357 nM.

Consider `CCCCOC(=O)C(C)(C)NP(=O)(CO[C@H](C)Cn1cnc2c(N)ncnc21)O[C@@H](C)C(=O)OC1CCCC1` (single isomer, unassigned) [Example 11A], for which the half-maximal inhibitory concentration (IC50) under setting [3] is 24.8 nM and the IC50 under setting [4] was determined as 66.2 nM.

With `CCCCOC(=O)C(C)(C)NP(=O)(CO[C@H](C)Cn1cnc2c(N)ncnc21)O[C@@H](C)C(=O)OC1CCCC1` (single isomer, unassigned) [Example 11B], the IC50 by setting is: under setting [3], 3.98 nM; under setting [4], 22.8 nM.

Take `CC(C)OC(=O)[C@H](C)OP(=O)(CO[C@H](C)Cn1cnc2c(N)ncnc21)NC(C)(C)C(=O)OC1CCCCC1` (single isomer, unassigned) [Example 12B]: the IC50 is 6.07 nM under setting [3] and 13.5 nM under setting [4].

In the case of `CC(C)OC(=O)COP(=O)(CO[C@H](C)Cn1cnc2c(N)ncnc21)NC(C)(C)C(=O)OC1CCCC1` (single isomer, unassigned) [Example 14A], the concentration for half-maximal inhibition (IC50) stood at 10 nM under setting [1] and 23.5 nM under setting [2].

Take `CC(C)OC(=O)COP(=O)(CO[C@H](C)Cn1cnc2c(N)ncnc21)NC(C)(C)C(=O)OC1CCCC1` (single isomer, unassigned) [Example 14B]: the IC50 is, setting by setting: under setting [3], 5.4 nM; under setting [4], 36.2 nM.

Regarding `CC(C)OC(=O)COP(=O)(CO[C@H](C)Cn1cnc2c(N)ncnc21)NC(C)(C)C(=O)OC1CCCCC1` (single isomer, unassigned) [Example 15A], the IC50 was 9.98 nM under setting [1] and 28.5 nM under setting [2].

On to `CC(C)OC(=O)COP(=O)(CO[C@H](C)Cn1cnc2c(N)ncnc21)NC(C)(C)C(=O)OC1CCCCC1` (single isomer, unassigned) [Example 15B], for which the IC50 by setting is: under setting [3], 10.3 nM; under setting [4], 44.2 nM.

As to `CC(C)OC(=O)[C@H](C)OP(=O)(CO[C@H](C)Cn1cnc2c(N)ncnc21)NC(C)(C)C(=O)OC1CCC1` (single isomer, unassigned) [Example 16A], the IC50 is, setting by setting: under setting [1], 2.61 nM; under setting [4], 7.5 nM.

As for `CC(C)OC(=O)[C@H](C)OP(=O)(CO[C@H](C)Cn1cnc2c(N)ncnc21)NC(C)(C)C(=O)OC1CCC1` (single isomer, unassigned) [Example 16B], the half-inhibitory concentration (IC50) runs as follows: under setting [3], 4.75 nM; under setting [4], 17.1 nM.

`CC(C)OC(=O)COP(=O)(CO[C@H](C)Cn1cnc2c(N)ncnc21)NC(C)(C)C(=O)OC1CCC1` (single isomer, unassigned) [Example 17A]: the IC50 stood at 6.39 nM under setting [1] and 12.7 nM under setting [2].

With `CCCCCOC(=O)C(C)(C)NP(=O)(CO[C@H](C)Cn1cnc2c(N)ncnc21)O[C@@H](C)C(=O)OC1CCCC1` (single isomer, unassigned) [Example 19A], the 50% inhibitory concentration (IC50) stood at 14 nM under setting [3] and 49.7 nM under setting [4].

With `CCOC(=O)C(C)(C)NP(=O)(CO[C@H](C)Cn1cnc2c(N)ncnc21)OCC(=O)OC(C)C` (stereo partly drawn) [Example 27, Ethyl 2-((((((R)-1-(6-amino-9H-purin-9-yl)propan-2-yl)oxy)methyl)(2-isopropoxy-2-oxoethoxy)phosphoryl)amino)-2-methylpropanoate], the IC50 turned out to be 10.1 nM under setting [1] and 13.3 nM under setting [2].

`CCOC(=O)C(C)(C)NP(=O)(CO[C@H](C)Cn1cnc2c(N)ncnc21)O[C@@H](C)C(=O)OC(C)C` (stereo partly drawn) [Example 28, Ethyl 2-((((((R)-1-(6-amino-9H-purin-9-yl)propan-2-yl)oxy)methyl)(((S)-1-isopropoxy-1-oxopropan-2-yl)oxy)phosphoryl)amino)-2-methylpropanoate]: the IC50 runs as follows: under setting [1], 6.38 nM; under setting [2], 19.7 nM.

As to `CCOC(=O)C(C)(C)NP(=O)(CO[C@H](C)Cn1cnc2c(N)ncnc21)O[C@H](C)C(=O)OC(C)C` (stereo partly drawn) [Example 29, Ethyl 2-((((((R)-1-(6-amino-9H-purin-9-yl)propan-2-yl)oxy)methyl)(((R)-1-isopropoxy-1-oxopropan-2-yl)oxy)phosphoryl)amino)-2-methylpropanoate], the IC50 was determined as 9.22 nM under setting [1] and 17.2 nM under setting [2].

As for `CC(C)COC(=O)C(C)(C)NP(=O)(CO[C@H](C)Cn1cnc2c(N)ncnc21)OCC(=O)OC(C)C` (stereo partly drawn) [Example 30, Isobutyl 2-((((((R)-1-(6-amino-9H-purin-9-yl)propan-2-yl)oxy)methyl)(2-isopropoxy-2-oxoethoxy)phosphoryl)amino)-2-methylpropanoate], the IC50 runs as follows: under setting [1], 4.38 nM; under setting [2], 12 nM.

With `CC(C)OC(=O)[C@H](Cc1ccccc1)OP(=O)(CO[C@H](C)Cn1cnc2c(N)ncnc21)NC(C)(C)C(=O)OC(C)C` (stereo partly drawn) [Example 32, Isopropyl 2-((((((R)-1-(6-amino-9H-purin-9-yl)propan-2-yl)oxy)methyl)(((S)-1-isopropoxy-1-oxo-3-phenylpropan-2-yl)oxy)phosphoryl)amino)-2-methylpropanoate], the IC50 worked out at 3.34 nM under setting [1] and 23.2 nM under setting [2].

In the case of `CCCCCCOC(=O)C(C)(C)NP(=O)(CO[C@H](C)Cn1cnc2c(N)ncnc21)O[C@@H](C)C(=O)OC1CCCC1` (stereo partly drawn) [Example 34, Hexyl 2-((((((R)-1-(6-amino-9H-purin-9-yl)propan-2-yl)oxy)methyl)(((S)-1-(cyclopentyloxy)-1-oxopropan-2-yl)oxy)phosphoryl)amino)-2-methylpropanoate], the IC50 under setting [1] turned out to be 3.57 nM and the IC50 under setting [2] stood at 12.9 nM.

Take `CCCCCCOC(=O)C(C)(C)NP(=O)(CO[C@H](C)Cn1cnc2c(N)ncnc21)OCC(=O)OC1CCCC1` (stereo partly shown) [Example 35]: the IC50 under setting [1] came to 3.83 nM and the IC50 under setting [2] turned out to be 14 nM.

Regarding `CC(C)COC(=O)C(C)(C)NP(=O)(CO[C@H](C)Cn1cnc2c(N)ncnc21)O[C@@H](C)C(=O)OC1CCCC1` (stereo partly drawn) [Example 37, Isobutyl 2-((((((R)-1-(6-amino-9H-purin-9-yl)propan-2-yl)oxy)methyl)(((S)-1-(cyclopentyloxy)-1-oxopropan-2-yl)oxy)phosphoryl)amino)-2-methylpropanoate], the IC50 is 10.3 nM under setting [1] and 63.1 nM under setting [2].

As to `CC(C)OC(=O)[C@H](C)OP(=O)(CO[C@H](C)Cn1cnc2c(N)ncnc21)NC(C)(C)C(=O)OC1CCCC1` (stereo partly drawn) [Example 39, Cyclopentyl 2-((((((R)-1-(6-amino-9H-purin-9-yl)propan-2-yl)oxy)methyl)(((S)-1-isopropoxy-1-oxopropan-2-yl)oxy)phosphoryl)amino)-2-methylpropanoate], the IC50 was 3.43 nM under setting [1] and 12.6 nM under setting [2].

For the compound `CCOC(=O)[C@H](C)OP(=O)(CO[C@H](C)Cn1cnc2c(N)ncnc21)NC(C)(C)C(=O)OC(C)C` (stereo partly drawn) [Example 40, Isopropyl 2-((((((R)-1-(6-amino-9H-purin-9-yl)propan-2-yl)oxy)methyl)(((S)-1-ethoxy-1-oxopropan-2-yl)oxy)phosphoryl)amino)-2-methylpropanoate], the IC50 runs as follows: under setting [1], 19.2 nM; under setting [2], 58.7 nM.
